From the kinase profiling compilation of Christmann-Franck et al. (2016)

Assays:
Assay in all cases: KINOMEscan competition binding
Details in all cases: compound 10.0 µM
CDC42BPG (human) = CDC42BPG (human) (UniProt Q6DT37)
MAPK15 (human) = MAPK15 (human) (UniProt Q8TD08)
[1] = tested on: FLT3 (human), P36888 [D835Y]
PHKG2 (human) = PHKG2 (human) (UniProt P15735)
CDK4 CCND3 (human) = CDK4 CCND3 (human) (UniProt P11802+P30281)
NTRK3 (human) = NTRK3 (human) (UniProt Q16288)
[2] = tested on: EGFR (human), P00533 [G719C]
[3] = tested on: BMX (human), P51813 [V600E]
[4] = target: TYK2 JH1 catalytic (human) (UniProt P29597)
HIPK1 (human) = HIPK1 (human) (UniProt Q86Z02)
MAP4K5 (human) = MAP4K5 (human) (UniProt Q9Y4K4)
NEK3 (human) = NEK3 (human) (UniProt P51956)
PRPF4B (human) = PRPF4B (human) (UniProt Q13523)
MAP2K2 (human) = MAP2K2 (human) (UniProt P36507)
BLK (human) = BLK (human) (UniProt P51451)
ADCK3 (human) = ADCK3 (human) (UniProt Q8NI60)
MAPK8 (human) = MAPK8 (human) (UniProt P45983)
FLT1 (human) = FLT1 (human) (UniProt P17948)
CDK18 (human) = CDK18 (human) (UniProt Q07002)
PRKG2 (human) = PRKG2 (human) (UniProt Q13237)
ERN1 (human) = ERN1 (human) (UniProt O75460)
RIOK3 (human) = RIOK3 (human) (UniProt O14730)
Chain of RIOK3 (human) (O14730 whole entry, looked up): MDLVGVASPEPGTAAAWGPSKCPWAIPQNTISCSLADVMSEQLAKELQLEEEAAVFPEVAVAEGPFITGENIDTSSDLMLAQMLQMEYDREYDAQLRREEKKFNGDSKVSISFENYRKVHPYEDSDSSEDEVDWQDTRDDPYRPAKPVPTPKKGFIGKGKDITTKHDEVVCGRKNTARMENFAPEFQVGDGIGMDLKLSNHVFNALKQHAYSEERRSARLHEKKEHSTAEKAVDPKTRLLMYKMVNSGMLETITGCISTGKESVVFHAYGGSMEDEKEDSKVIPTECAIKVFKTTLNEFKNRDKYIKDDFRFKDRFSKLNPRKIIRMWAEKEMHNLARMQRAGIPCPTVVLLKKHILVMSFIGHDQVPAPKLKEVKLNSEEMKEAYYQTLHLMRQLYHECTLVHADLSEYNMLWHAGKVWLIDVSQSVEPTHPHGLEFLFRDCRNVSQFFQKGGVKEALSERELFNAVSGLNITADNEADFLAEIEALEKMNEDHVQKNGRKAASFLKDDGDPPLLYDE

PAK1 (human) = PAK1 (human) (UniProt Q13153)
Chain of PAK1 (human) (Q13153 whole entry, looked up): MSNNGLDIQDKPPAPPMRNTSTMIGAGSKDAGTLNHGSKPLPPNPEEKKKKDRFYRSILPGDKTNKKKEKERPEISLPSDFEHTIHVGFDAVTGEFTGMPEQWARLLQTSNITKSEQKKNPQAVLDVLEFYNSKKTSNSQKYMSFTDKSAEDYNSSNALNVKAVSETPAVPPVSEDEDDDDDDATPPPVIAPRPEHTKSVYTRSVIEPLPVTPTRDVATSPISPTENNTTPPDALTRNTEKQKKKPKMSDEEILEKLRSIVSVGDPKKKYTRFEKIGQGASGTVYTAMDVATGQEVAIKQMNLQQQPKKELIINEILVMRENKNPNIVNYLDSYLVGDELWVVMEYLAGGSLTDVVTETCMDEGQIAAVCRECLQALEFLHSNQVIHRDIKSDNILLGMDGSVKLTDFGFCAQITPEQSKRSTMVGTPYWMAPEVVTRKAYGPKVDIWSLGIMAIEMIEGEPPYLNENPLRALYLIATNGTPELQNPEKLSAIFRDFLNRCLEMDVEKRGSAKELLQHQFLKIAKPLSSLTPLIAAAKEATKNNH

BRSK1 (human) = BRSK1 (human) (UniProt Q8TDC3)
RPS6KA4 KD1 (human) = RPS6KA4 KD1 (human) (UniProt O75676)
Chain of RPS6KA4 KD1 (human) (O75676 whole entry, looked up): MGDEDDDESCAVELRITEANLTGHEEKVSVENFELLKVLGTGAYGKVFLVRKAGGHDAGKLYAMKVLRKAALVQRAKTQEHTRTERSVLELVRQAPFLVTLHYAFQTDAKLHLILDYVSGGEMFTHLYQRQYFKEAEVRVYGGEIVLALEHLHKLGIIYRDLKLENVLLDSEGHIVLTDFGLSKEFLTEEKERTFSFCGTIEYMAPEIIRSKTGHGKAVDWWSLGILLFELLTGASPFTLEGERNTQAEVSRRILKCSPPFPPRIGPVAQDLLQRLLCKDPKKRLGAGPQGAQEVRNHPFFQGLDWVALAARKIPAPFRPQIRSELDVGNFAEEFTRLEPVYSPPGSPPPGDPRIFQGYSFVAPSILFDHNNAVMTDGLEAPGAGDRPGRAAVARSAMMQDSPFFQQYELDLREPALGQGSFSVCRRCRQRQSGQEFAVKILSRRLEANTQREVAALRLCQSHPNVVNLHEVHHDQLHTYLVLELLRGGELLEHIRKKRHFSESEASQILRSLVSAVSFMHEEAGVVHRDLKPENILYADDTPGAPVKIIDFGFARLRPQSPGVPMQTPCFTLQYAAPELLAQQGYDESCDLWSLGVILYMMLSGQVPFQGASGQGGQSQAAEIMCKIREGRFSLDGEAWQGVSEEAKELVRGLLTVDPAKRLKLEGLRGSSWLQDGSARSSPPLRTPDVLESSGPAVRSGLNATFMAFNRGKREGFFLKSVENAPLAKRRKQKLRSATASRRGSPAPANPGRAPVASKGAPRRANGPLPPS

SGK110 (human) = SGK110 (human) (UniProt P0C264)
NEK7 (human) = NEK7 (human) (UniProt Q8TDX7)
ANKK1 (human) = ANKK1 (human) (UniProt Q8NFD2)
RPS6KA1 KD2 (human) = RPS6KA1 KD2 (human) (UniProt Q15418)
Chain of RPS6KA1 KD2 (human) (Q15418 whole entry, looked up): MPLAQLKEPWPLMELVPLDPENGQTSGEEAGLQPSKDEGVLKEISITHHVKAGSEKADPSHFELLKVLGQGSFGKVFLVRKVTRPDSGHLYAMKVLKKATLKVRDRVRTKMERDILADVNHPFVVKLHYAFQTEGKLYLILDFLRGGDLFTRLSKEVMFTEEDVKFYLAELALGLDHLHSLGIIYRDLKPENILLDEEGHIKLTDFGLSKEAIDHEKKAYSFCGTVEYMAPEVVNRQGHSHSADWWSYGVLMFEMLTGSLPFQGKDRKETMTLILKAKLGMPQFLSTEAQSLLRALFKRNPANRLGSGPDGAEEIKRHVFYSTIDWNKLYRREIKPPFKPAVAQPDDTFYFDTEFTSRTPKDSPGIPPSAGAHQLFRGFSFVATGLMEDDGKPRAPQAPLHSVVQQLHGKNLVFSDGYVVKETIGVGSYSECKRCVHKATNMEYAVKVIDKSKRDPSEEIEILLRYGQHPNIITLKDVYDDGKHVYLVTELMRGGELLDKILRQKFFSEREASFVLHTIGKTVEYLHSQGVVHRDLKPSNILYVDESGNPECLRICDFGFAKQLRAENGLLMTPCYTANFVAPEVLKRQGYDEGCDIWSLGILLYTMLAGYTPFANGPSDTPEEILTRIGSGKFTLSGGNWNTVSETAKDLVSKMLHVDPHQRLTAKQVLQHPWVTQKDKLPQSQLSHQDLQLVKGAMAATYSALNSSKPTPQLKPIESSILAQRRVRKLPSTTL

SNRK (human) = SNRK (human) (UniProt Q9NRH2)
MST1R (human) = MST1R (human) (UniProt Q04912)
MATK (human) = MATK (human) (UniProt P42679)
CSK (human) = CSK (human) (UniProt P41240)
IRAK1 (human) = IRAK1 (human) (UniProt P51617)
TNIK (human) = TNIK (human) (UniProt Q9UKE5)
TSSK1B (human) = TSSK1B (human) (UniProt Q9BXA7)
PLK3 (human) = PLK3 (human) (UniProt Q9H4B4)
STK17B (human) = STK17B (human) (UniProt O94768)
CaMK1 (human) = CaMK1 (human) (UniProt Q14012)
TLK1 (human) = TLK1 (human) (UniProt Q9UKI8)
Chain of TLK1 (human) (Q9UKI8 whole entry, looked up): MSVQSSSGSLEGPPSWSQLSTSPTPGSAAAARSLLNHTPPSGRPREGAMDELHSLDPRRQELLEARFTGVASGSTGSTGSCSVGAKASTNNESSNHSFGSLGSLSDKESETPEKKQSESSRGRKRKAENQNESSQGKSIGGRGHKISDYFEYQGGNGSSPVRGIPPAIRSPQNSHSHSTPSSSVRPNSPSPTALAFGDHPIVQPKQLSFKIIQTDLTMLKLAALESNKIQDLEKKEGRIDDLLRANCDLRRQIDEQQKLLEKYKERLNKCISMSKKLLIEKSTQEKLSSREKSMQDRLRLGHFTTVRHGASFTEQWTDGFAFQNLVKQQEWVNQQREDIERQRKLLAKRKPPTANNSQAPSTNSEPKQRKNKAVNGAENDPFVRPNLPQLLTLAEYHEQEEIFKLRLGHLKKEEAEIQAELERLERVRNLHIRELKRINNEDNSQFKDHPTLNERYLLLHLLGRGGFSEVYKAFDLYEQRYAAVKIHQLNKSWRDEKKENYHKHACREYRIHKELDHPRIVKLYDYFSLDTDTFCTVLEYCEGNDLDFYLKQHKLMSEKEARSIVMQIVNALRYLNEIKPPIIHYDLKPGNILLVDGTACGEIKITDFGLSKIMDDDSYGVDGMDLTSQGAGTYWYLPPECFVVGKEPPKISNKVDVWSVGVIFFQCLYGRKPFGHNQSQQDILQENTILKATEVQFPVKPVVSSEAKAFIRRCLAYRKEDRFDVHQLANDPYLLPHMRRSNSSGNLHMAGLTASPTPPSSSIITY

Chain of CDC42BPG (human) (Q6DT37 whole entry, looked up): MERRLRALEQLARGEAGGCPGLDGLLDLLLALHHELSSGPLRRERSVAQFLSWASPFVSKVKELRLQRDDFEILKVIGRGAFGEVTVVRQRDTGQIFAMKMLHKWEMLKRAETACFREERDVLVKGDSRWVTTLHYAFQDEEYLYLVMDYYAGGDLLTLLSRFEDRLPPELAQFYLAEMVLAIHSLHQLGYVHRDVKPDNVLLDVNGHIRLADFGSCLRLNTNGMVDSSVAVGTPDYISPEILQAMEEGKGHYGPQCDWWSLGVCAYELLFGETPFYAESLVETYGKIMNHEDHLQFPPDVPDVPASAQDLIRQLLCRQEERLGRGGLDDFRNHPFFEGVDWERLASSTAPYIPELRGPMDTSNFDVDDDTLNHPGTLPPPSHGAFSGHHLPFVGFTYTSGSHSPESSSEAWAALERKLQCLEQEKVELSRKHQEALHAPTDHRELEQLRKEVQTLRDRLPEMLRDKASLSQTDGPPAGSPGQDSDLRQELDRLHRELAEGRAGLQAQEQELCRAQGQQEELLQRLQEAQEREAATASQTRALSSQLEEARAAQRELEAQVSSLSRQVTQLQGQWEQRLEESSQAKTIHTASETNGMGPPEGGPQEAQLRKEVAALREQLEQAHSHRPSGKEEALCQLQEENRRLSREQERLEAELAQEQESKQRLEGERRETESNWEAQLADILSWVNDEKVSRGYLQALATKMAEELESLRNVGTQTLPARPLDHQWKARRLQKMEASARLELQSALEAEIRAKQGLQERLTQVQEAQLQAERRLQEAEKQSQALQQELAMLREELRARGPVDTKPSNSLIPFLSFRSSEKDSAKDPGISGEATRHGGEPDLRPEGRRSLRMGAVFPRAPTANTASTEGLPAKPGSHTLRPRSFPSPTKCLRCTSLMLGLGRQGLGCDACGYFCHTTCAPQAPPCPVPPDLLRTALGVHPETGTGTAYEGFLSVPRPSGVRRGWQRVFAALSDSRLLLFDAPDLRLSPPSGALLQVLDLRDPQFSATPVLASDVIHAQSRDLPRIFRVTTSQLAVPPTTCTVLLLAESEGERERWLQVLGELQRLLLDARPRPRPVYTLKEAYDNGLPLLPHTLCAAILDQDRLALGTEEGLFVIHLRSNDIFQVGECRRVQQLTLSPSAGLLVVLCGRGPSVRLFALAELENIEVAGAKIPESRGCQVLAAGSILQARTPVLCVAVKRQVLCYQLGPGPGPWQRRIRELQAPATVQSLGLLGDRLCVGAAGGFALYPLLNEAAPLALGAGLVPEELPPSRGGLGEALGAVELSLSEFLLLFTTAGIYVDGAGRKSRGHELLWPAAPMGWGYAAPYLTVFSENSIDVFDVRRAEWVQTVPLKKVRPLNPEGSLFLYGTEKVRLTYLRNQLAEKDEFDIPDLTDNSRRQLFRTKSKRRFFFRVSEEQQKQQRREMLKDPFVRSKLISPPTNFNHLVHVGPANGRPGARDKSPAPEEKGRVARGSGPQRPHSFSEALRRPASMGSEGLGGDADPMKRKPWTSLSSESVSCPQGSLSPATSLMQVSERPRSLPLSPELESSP

C=CC(=O)Nc1ccc(C(=O)c2sc(Nc3ccc(N4CCN(C)CC4)cc3OC)nc2N)cc1
kinase still bound, per cent of control (CDC42BPG (human)): 93% | kinase still bound, per cent of control (MAPK15 (human)): 75% | kinase still bound, per cent of control [1]: 23% | kinase still bound, per cent of control (PHKG2 (human)): 3% | kinase still bound, per cent of control (CDK4 CCND3 (human)): 0.55% | kinase still bound, per cent of control (NTRK3 (human)): 93% | kinase still bound, per cent of control [2]: 3% | kinase still bound, per cent of control [3]: 92% | kinase still bound, per cent of control [4]: 100% | kinase still bound, per cent of control (HIPK1 (human)): 15% | kinase still bound, per cent of control (MAP4K5 (human)): 87% | kinase still bound, per cent of control (NEK3 (human)): 70% | kinase still bound, per cent of control (PRPF4B (human)): 100% | kinase still bound, per cent of control (MAP2K2 (human)): 89% | kinase still bound, per cent of control (BLK (human)): 100% | kinase still bound, per cent of control (ADCK3 (human)): 42% | kinase still bound, per cent of control (MAPK8 (human)): 4.2% | kinase still bound, per cent of control (FLT1 (human)): 97% | kinase still bound, per cent of control (CDK18 (human)): 100% | kinase still bound, per cent of control (PRKG2 (human)): 81% | kinase still bound, per cent of control (ERN1 (human)): 7.6% | kinase still bound, per cent of control (RIOK3 (human)): 61% | kinase still bound, per cent of control (PAK1 (human)): 73% | kinase still bound, per cent of control (BRSK1 (human)): 98% | kinase still bound, per cent of control (RPS6KA4 KD1 (human)): 95% | kinase still bound, per cent of control (SGK110 (human)): 100% | kinase still bound, per cent of control (NEK7 (human)): 100% | kinase still bound, per cent of control (ANKK1 (human)): 100% | kinase still bound, per cent of control (RPS6KA1 KD2 (human)): 0.3% | kinase still bound, per cent of control (SNRK (human)): 0.2% | kinase still bound, per cent of control (MST1R (human)): 100% | kinase still bound, per cent of control (MATK (human)): 25% | kinase still bound, per cent of control (CSK (human)): 87% | kinase still bound, per cent of control (IRAK1 (human)): 41% | kinase still bound, per cent of control (TNIK (human)): 6% | kinase still bound, per cent of control (TSSK1B (human)): 44% | kinase still bound, per cent of control (PLK3 (human)): 7.8% | kinase still bound, per cent of control (STK17B (human)): 100% | kinase still bound, per cent of control (CaMK1 (human)): 8.2% | kinase still bound, per cent of control (TLK1 (human)): 69%

N#Cc1cc(-c2ccnc(Nc3ccc(-n4cnc(-c5cccnc5)n4)cc3)n2)cc(N2CCOCC2)c1
kinase still bound, per cent of control (CDC42BPG (human)): 63% | kinase still bound, per cent of control (MAPK15 (human)): 2% | kinase still bound, per cent of control [1]: 14% | kinase still bound, per cent of control (PHKG2 (human)): 81% | kinase still bound, per cent of control (CDK4 CCND3 (human)): 12% | kinase still bound, per cent of control (NTRK3 (human)): 100% | kinase still bound, per cent of control [2]: 71% | kinase still bound, per cent of control [3]: 72% | kinase still bound, per cent of control [4]: 0% | kinase still bound, per cent of control (HIPK1 (human)): 2.2% | kinase still bound, per cent of control (MAP4K5 (human)): 27% | kinase still bound, per cent of control (NEK3 (human)): 0.75% | kinase still bound, per cent of control (PRPF4B (human)): 57% | kinase still bound, per cent of control (MAP2K2 (human)): 62% | kinase still bound, per cent of control (BLK (human)): 86% | kinase still bound, per cent of control (ADCK3 (human)): 38% | kinase still bound, per cent of control (MAPK8 (human)): 0.05% | kinase still bound, per cent of control (FLT1 (human)): 48% | kinase still bound, per cent of control (CDK18 (human)): 43% | kinase still bound, per cent of control (PRKG2 (human)): 74% | kinase still bound, per cent of control (ERN1 (human)): 54% | kinase still bound, per cent of control (RIOK3 (human)): 3.2% | kinase still bound, per cent of control (PAK1 (human)): 65% | kinase still bound, per cent of control (BRSK1 (human)): 85% | kinase still bound, per cent of control (RPS6KA4 KD1 (human)): 100% | kinase still bound, per cent of control (SGK110 (human)): 78% | kinase still bound, per cent of control (NEK7 (human)): 45% | kinase still bound, per cent of control (ANKK1 (human)): 55% | kinase still bound, per cent of control (RPS6KA1 KD2 (human)): 77% | kinase still bound, per cent of control (SNRK (human)): 90% | kinase still bound, per cent of control (MST1R (human)): 100% | kinase still bound, per cent of control (MATK (human)): 62% | kinase still bound, per cent of control (CSK (human)): 66% | kinase still bound, per cent of control (IRAK1 (human)): 9.3% | kinase still bound, per cent of control (TNIK (human)): 26% | kinase still bound, per cent of control (TSSK1B (human)): 100% | kinase still bound, per cent of control (PLK3 (human)): 93% | kinase still bound, per cent of control (STK17B (human)): 56% | kinase still bound, per cent of control (CaMK1 (human)): 83% | kinase still bound, per cent of control (TLK1 (human)): 39%
